Experimental data taken from patent US20170240570A1, “NOVEL SMALL MOLECULE ANTICANCER AGENTS” (UNIVERSITY OF FLORIDA RESEARCH FOUNDATION, priority 2014, published 2017).
Entries after “also recorded” stand apart in the source; their conditions may differ.

Experiments:
Format in all cases: cell-based, human
[1] = tested on: EGFR, HER2, HER3, Akt, Erk, PARP in MDA-MB-468 cells; test: Immunoblot analysis of treated cells
Method: FIG. 3. depicts 3A) the analysis of MDA-MB-468 cells treated as indicated for 24 h by immunoblot for levels of EGFR and EGFR phosphorylation. 3B) the analysis of MDA-MB-468 cells treated as indicated for 24 h by immunoblot for PARP cleavage. 3C) MDA-MB-468 cells were either left untreated, or treated with 20 μM NSC624205 for 24 hours. NSC624205-treated cells were then washed and incubated for the indicated periods in the absence of drug. EGFR electrophoretic mobility was analyzed by immunoblot. 3D) MDA-MB-468 cells were pretreated with 25 μM NSC624205 or vehicle for 15 hours and then either left untreated or stimulated for 15 minutes with 20 ng/ml EGF, after which cell extracts were analyzed by immunoblot. 3E) MDA-MB-468 cells were treated as indicated for 24 hours and analyzed by immunoblot.
FIG. 5. depicts 5A) Photomicrographs of MDA-MB-468 cells treated for 24 h with 20 μM of the indicated compounds. 5B) Immunoblot analysis of MDA-MB-468 cells treated as in 5A. […] 5D) Viability of BT474 or MDA-MB-468 cells treated for 24 h with the indicated drug at the specified concentrations was measured in MTT assays. Assays were carried out in triplicate and results were presented as the average±S.D. 5E) Proliferation of tert-immortalized human mammary epithelial cells (HMEC-tert) and MDA-MB-468, BT474, and SKBR3 breast cancer cells after incubation with the indicated concentrations of RBF3 for 24 h was measured in thymidine incorporation assays as described in FIG. 2D. 5F)-5H) The indicated cell lines were treated with the indicated compounds at 20 μM unless otherwise indicated for 24 h and analyzed by immunoblot.
To examine the reversibility of NSC624205 actions, MDA-MB-468 cells were treated for 24 hr with NSC624205 and then the compound was washed out and the cells were allowed to recover for various periods of time. […] To examine whether NSC624205 can suppress cellular responses to EGF, cells were stimulated with EGF either with or without NSC624205 treatment.

[2] = tested on: MDA-MB-468 breast cancer cells; test: Cell viability / cell killing, photomicrographs of treated cells
Method: (§1) FIG. 2. depicts 2A) Photomicrographs of MDA-MB-468 or BxPC3 cells treated for 24 hours with 25 μM NSC624205 or the vehicle control. 2B) MDA-MB-468 cells were treated for 24 hours with the indicated concentrations of NSC624203, NSC624204, and NSC624205 and cell viability (mass) was measured by crystal violet staining. 2C) Photomicrographs of MDA-MB-468, SKBR3, or MDA-MB-231 cells treated for 24 h with 10 μM NSC624205 or the vehicle control. 2D) Cell proliferation was measured by thymidine incorporation through the treatment of MDAMB-468 and SKBR3 cells for 24 hours with NSC624203, an EGFR/HER2 inhibitor, or a combination of the two compounds. Results are presented as the average of triplicate determinations±S.D. 2E) The indicated cancer cell lines were treated for 24 h with 20 μM NSC624205 or vehicle and cell extracts were analyzed by immunoblot. Actin serves as a loading control.
FIG. 5. depicts 5A) Photomicrographs of MDA-MB-468 cells treated for 24 h with 20 μM of the indicated compounds. 5B) Immunoblot analysis of MDA-MB-468 cells treated as in 5A. 5C) Chemical structures of Disulfide bond Disrupting Agents (DDAs) showing active compounds on the left side with the pharmacophore highlighted in red, along with the generic pharmacophore. […] The exception to this rule is NSC627175/DTDO, which represents a different pharmacophore. 5D) Viability of BT474 or MDA-MB-468 cells treated for 24 h with the indicated drug at the specified concentrations was measured in MTT assays. Assays were carried out in triplicate and results were presented as the average±S.D. 5E) Proliferation of tert-immortalized human mammary epithelial cells (HMEC-tert) and MDA-MB-468, BT474, and SKBR3 breast cancer cells after incubation with the indicated concentrations of RBF3 for 24 h was measured in thymidine incorporation assays as described in FIG. 2D. 5F)-5H) The indicated cell lines were treated with the indicated compounds at 20 μM unless otherwise indicated for 24 h and analyzed by immunoblot.
The sulfur atom in sulfinic acids can act as a nucleophile capable of breaking disulfide bonds. […]

[3] = tested on: HER2, EGFR, Akt, Erk, S6, PARP in HCC1954 cells; test: Immunoblot analysis of treated cells
Excerpt: Immunoblot analysis of HCC1954 cells treated as in 8B.

HCC1954 cells = test: Viability in MTT assay; conditions: 24 h
Method: FIG. 8. depicts 8A) Viability of HCC1954 cells treated as indicated for 24 h measured in MTT assays.

[4] = tested on: EGFR, HER2, HER3, Akt, Erk in SKBR3 cells; test: Immunoblot analysis of treated cells; conditions: 20 μM, 24 h
Method: as §1
FIG. 5. depicts 5A) Photomicrographs of MDA-MB-468 cells treated for 24 h with 20 μM of the indicated compounds. 5B) Immunoblot analysis of MDA-MB-468 cells treated as in 5A. […] 5D) Viability of BT474 or MDA-MB-468 cells treated for 24 h with the indicated drug at the specified concentrations was measured in MTT assays. […] 5F)-5H) The indicated cell lines were treated with the indicated compounds at 20 μM unless otherwise indicated for 24 h and analyzed by immunoblot. […]

[5] = tested on: BxPC3 pancreatic cancer cells; test: Cell viability, photomicrographs of treated cells; conditions: 25 μM, 24 hours
Method: as §1
(§2) The sulfur atom in sulfinic acids can act as a nucleophile capable of breaking disulfide bonds. Therefore we obtained several sulfinate-containing compounds from the National Cancer Institute's Developmental Therapeutics Program (NCI/DTP) and, as an initial screen, examined their ability to decrease the viability of various human cancer cell lines. […] NSC624205 and two related compounds, NSC624203 and NSC624204, decreased cell viability by 50% in the range of 3.7-33 μM (FIG. 2B). […]

[6] = tested on: MDA-MB-231 breast cancer cell line; test: Cell killing, photomicrographs of treated cells; conditions: 10 μM, 24 hr
Method: as §1, §2

SKBR3 cells [7] = test: Cell killing, photomicrographs of treated cells; conditions: 10 μM, 24 hr
Method: as §1, §2

[8] = tested on: EGFR, Akt in EGFR overexpressing T47D cells; test: Immunoblot analysis of treated cells; conditions: 20 μM, 24 hours
Method: (§3) FIG. 4. depicts 4A) the treatment of vector control or EGFR overexpressing T47D cells with 20 μM NSC624205 or vehicle for 24 hours and then photographed. […] 4B) Cells treated as in 4A) were subjected to immunoblot analysis.

Erk in T47D cells = test: Immunoblot analysis of treated cells; conditions: 20 μM, 24 h
Method: as §1, §2

[9] = tested on: T47D cells with enforced EGFR expression (T47D.EGFR); test: Cell death, photographs of treated cells; conditions: 20 μM, 24 hours
Method: as §3

[10] = tested on: T47D cells (vector control); test: Cell death, photographs of treated cells
Method: as §3

[11] = tested on: T47D.Puro and T47D.EGFR cells; test: Thymidine incorporation, vector control versus EGFR overexpressing cells; conditions: 24 h, increasing concentrations
MDA-MB-468 cells = test: Cell proliferation by thymidine incorporation; conditions: 24 hours, same concentration
Method: as §1, §2

SKBR3 cells [12] = test: Cell proliferation by thymidine incorporation; conditions: 24 hours, same concentration
Method: as §1, §2

[13] = 25 μM pretreatment 15 hours, 20 ng/ml EGF 15 minutes
[14] = 24 h, increasing concentrations

Compound: O=S(O)CCCCSSSCCCCS(=O)O [NSC333839]
- EGFR and Akt phosphorylation ([1]; 20 μM, 24 h): activity similar to NSC624205
- cell viability ([2]; 20 μM, 24 h, panel of sulfinate-containing compounds): activity similar to NSC624205

Compound: CS(=O)(=O)CCNCc1ccc(-c2ccc3ncnc(Nc4ccc(OCc5cccc(F)c5)c(Cl)c4)c3c2)o1 [Lapatinib]
- Akt phosphorylation ([3]; 24 h, 20 μM RBF3, 100 nM Rapamycin, 20 μM Lapatinib): without affecting
- Erk phosphorylation ([3]; 24 h, 20 μM RBF3, 100 nM Rapamycin, 20 μM Lapatinib (FIG. 8C)): reduced
- response of cell viability to single drug (HCC1954 cells): slightly more responsive

Compound: O=S(O)CCCCSSCC(O)CO (stereo not drawn) [NSC606968]
- Akt phosphorylation ([1]; 20 μM, 24 h): weak effect
- EGFR electrophoretic mobility ([1]; 20 μM, 24 h): partial effect

Compound: O=S(O)CCCCSSCCCCSSCCCCS(=O)O [NSC624205]
- Erk phosphorylation ([3]; 20 μM NSC624205, 24 h (FIG. 2E)): inhibiting
- EGFR electrophoretic mobility after washout (reversibility) ([1]; 20 μM for 24 hours, then 24 hours post-treatment without drug): restored to near control levels
- EGFR tyrosine phosphorylation on Tyr845, EGF-induced [1, 13]: decreased
- overall EGF-induced cellular tyrosine phosphorylation [1, 13]: decreased
- EGFR electrophoretic mobility [1, 14]: concentration-dependent increase
- EGFR phosphorylation (phospho-specific antibody) [1, 14]: decrease
- PARP cleavage [1, 14]: concentration-dependent increase
- Akt phosphorylation [4]: inhibiting
- Erk phosphorylation [4]: inhibiting
- cell viability [5]: little effect
- cell killing [6]: little effect
- cell killing (SKBR3 cells [7]): killed
- cell killing ([2]; 10 μM, 24 hr): killed
- cell viability ([2]; 25 μM, 24 hours): lethal
- Akt phosphorylation [8]: decreased
- EGFR electrophoretic mobility [8]: electrophoretic mobility shift
- Erk phosphorylation (Erk in T47D cells): inhibiting
- cell death [9]: Extensive cell death; also recorded: underwent cell death
- cell killing [10]: not killed

Compound: O=S(O)CCCCSSCC(O)C(O)CSSCCCCS(=O)O (stereo not drawn) [NSC624203]
- sensitivity of proliferation of EGFR overexpressing T47D cells relative to control cells [11]: more sensitive
- decreasing Akt phosphorylation, increasing PARP cleavage, reducing EGFR and overall cellular tyrosine phosphorylation, compared with AG490 or EGFR/HER2 kinase inhibitor ([1]; 24 hours): more effective
- inhibition of proliferation compared with commercial EGFR/HER2 tyrosine kinase inhibitor (Calbiochem #324673) (MDA-MB-468 cells): more effectively suppressed
- inhibition of proliferation compared with commercial EGFR/HER2 tyrosine kinase inhibitor (Calbiochem #324673) (SKBR3 cells [12]): more effectively suppressed
